molecular target: T1, androgen receptor (AR) (Homo sapiens, UniProt P10275); experiment: Degradation of androgen receptor (AR) protein in VCaP cells by Western blot; type: cell-based; details: percentage of degraded AR at 100 nM, VCaP cells, 16 h
T1 sequence (P10275 1-920): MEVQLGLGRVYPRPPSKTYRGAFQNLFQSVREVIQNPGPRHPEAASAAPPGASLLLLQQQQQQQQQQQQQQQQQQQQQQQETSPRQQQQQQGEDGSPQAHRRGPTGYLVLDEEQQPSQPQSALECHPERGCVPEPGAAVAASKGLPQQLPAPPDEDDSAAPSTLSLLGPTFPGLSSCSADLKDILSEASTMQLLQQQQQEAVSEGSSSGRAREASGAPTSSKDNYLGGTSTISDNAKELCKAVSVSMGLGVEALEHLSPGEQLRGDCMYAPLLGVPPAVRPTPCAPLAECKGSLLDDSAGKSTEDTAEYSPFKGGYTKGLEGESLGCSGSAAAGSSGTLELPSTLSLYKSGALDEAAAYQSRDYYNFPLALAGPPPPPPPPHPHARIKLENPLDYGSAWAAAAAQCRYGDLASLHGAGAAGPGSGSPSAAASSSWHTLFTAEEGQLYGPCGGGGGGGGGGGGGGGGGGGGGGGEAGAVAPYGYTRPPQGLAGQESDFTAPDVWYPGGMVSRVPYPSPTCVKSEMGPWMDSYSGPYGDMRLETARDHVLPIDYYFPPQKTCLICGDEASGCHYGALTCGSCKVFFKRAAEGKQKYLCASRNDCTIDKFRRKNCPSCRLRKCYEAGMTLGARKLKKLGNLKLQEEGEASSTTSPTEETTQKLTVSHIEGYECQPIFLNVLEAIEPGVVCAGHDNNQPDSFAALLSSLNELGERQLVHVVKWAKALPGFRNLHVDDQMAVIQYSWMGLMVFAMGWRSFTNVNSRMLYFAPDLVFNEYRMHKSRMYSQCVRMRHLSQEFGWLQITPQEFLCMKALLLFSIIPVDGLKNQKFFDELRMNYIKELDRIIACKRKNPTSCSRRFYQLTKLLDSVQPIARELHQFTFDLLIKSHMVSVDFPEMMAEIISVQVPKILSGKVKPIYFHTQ
Method in brief: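 VCaP cells (5×10^5/well) were seeded overnight, then treated in duplicate for 16 h with compound in 0.1% DMSO final. Lysates (30 μg protein) were immunoblotted for AR (D6F11) with β-actin as loading control, detected by ECL chemiluminescence.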

Row | Structure (SMILES) | inhibition at 0.1 µM [%] | % degradation
1 | N#Cc1ccc(O[C@H]2CC[C@H](NC(=O)c3ccc(N4C[C@H]5C[C@@H](CN6CCN(c7cc8c(cc7F)C(=O)N(C7CCC(=O)NC7=O)C8=O)CC6)C[C@H]5C4)nn3)CC2)cc1Cl (stereo partly drawn) [Compound 224, N-((1r,4r)-4-(3-chloro-4-cyanophenoxy)cyclohexyl)-6-((3aR,5R,6aS)-5-((4-(2-(2,6-dioxopiperidin-3-yl)-6-fluoro-1,3-dioxoisoindolin-5-yl)piperazin-1-yl)methyl)hexahydrocyclopenta[c]pyrrole-2(1H)-yl)pyridazine-3-formamide] | 50 to 79 | –
2 | N#Cc1ccc(O[C@H]2CC[C@H](NC(=O)c3ccc(N4CC(CN5CC6CN(c7cc8c(cc7F)C(=O)N(C7CCC(=O)NC7=O)C8=O)CC6C5)C4)nn3)CC2)cc1Cl (some centres unmarked) [Compound 137] | 50 to 79 | –
3 | N#Cc1ccc(O[C@H]2CC[C@H](NC(=O)c3ccc(N4CCC(N5CC6(CCN(c7cc8c(cc7F)C(=O)N(C7CCC(=O)NC7=O)C8=O)C6)C5)CC4)nn3)CC2)cc1Cl (some centres unmarked) [Compound 103, N-((1r,4r)-4-(3-chloro-4-cyanophenoxy)cyclohexyl)-6-(4-(6-(2-(2,6-dioxopiperidin-3-yl)-6-fluoro-1,3-dioxoisoindolin-5-yl)-2,6-diazaspiro[3.4]octane-2-yl)piperidin-1-yl)pyridazine-3-formamide] | > 80 | –
4 | CC1(C)[C@H](Oc2ccc(C#N)c(Cl)c2)C(C)(C)[C@H]1N1Cc2nc(C#CC3CN(C4CCN(c5ccc6c(c5)C(=O)N(C5CCC(=O)NC5=O)C6=O)CC4)C3)ccc2C1=O (some centres unmarked) [Compound 319, 2-Chloro-4-((1r,3r)-3-(2-((1-(1-(2-(2,6-dioxopiperidin-3-yl)-1,3-dioxoisoindolin-5-yl)piperidine-4-yl)azelaic acid-3-yl)ethynyl)-5-oxo-5H-pyrrolo[3,4-b]pyridin-6(7H)-yl)-2,2,4,4-tetramethylcyclobutoxy)benzonitrile] | < 25 | –
5 | N#Cc1ccc(OC2CCC(NC(=O)c3ccc(N4C[C@H]5CC(N6CCN(c7cc8c(cc7F)C(=O)N(C7CCC(=O)NC7=O)C8=O)CC6)C[C@H]5C4)nn3)CC2)cc1Cl (stereo partly drawn) [Compound 292, N-((1s,4S)-4-(3-chloro-4-cyanophenoxy)cyclohexyl)-6-((3aR,5R,6aS)-5-(4-(2-(2,6-dioxopiperidin-3-yl)-6-fluoro-1,3-dioxoisoindolin-5-yl)piperazin-1-yl)hexahydrocyclopenta[c]pyrrole-2(1H)-yl)pyridazine-3-formamide] | – | D (<25%)
6 | N#Cc1ccc(O[C@H]2CC[C@H](NC(=O)c3ccc(N4CCC5(CC4)CN(C4CCN(c6ccc7c(c6)C(=O)N(C6CCC(=O)NC6=O)C7=O)CC4)C5)nn3)CC2)cc1Cl (some centres unmarked) [Compound 74] | > 80 | –
7 | N#Cc1ccc(O[C@H]2CC[C@H](NC(=O)c3ccc(N4CCC(CN5CCC6(CCN(c7cc8c(cc7F)C(=O)N(C7CCC(=O)NC7=O)C8=O)C6)C5)CC4)nn3)CC2)cc1Cl (some centres unmarked) [Compound 142, N-((1r,4r)-4-(3-chloro-4-cyanophenoxy)cyclohexyl)-6-(4-((7-(2-(2,6-dioxopiperidin-3-yl)-6-fluoro-1,3-dioxoisoindol-5-yl)-2,7-diazaspiro[4.4]nonan-2-yl)methyl)piperidin-1-yl)pyridazine-3-formamide] | > 80 | –
8 | CC1(C)[C@H](Oc2ccc(C#N)c(Cl)c2)C(C)(C)[C@H]1N1Cc2nc(C#CC3CCN(CC4CCN(c5cc6c(cc5F)C(=O)N(C5CCC(=O)NC5=O)C6=O)CC4)CC3)ccc2C1=O (some centres unmarked) [Compound 333] | 50 to 79 | –
9 | N#Cc1ccc(O[C@H]2CC[C@H](NC(=O)c3ccc(N4CCN(C[C@@H]5[C@H]6CN(c7ccc8c(c7)C(=O)N(C7CCC(=O)NC7=O)C8=O)C[C@@H]56)CC4)nn3)CC2)cc1Cl (some centres unmarked) [Compound 102] | 50 to 79 | –
10 | CC1(C)[C@H](NC(=O)c2ccc(N3CC4CN(C5CCN(c6cc7c(cc6F)C(=O)N(C6CCC(=O)NC6=O)C7=O)CC5)CC4C3)nn2)C(C)(C)[C@H]1Oc1ccc(C#N)c(Cl)c1 (some centres unmarked) [Compound 72, N-((1r,3r)-3-(3-chloro-4-cyanophenoxy)-2,2,4,4-tetramethylcyclobutyl)-6-(5-(1-(2-(2,6-dioxopiperidin-3-yl)-6-fluoro-1,3-dioxoisoindolin-5-yl)piperidine-4-yl)hexahydropyrrolo[3,4-c]pyrrol-2(1H)-yl)pyridazine-3-formamide] | 25 to 49 | –
11 | N#Cc1ccc(O[C@H]2CC[C@H](NC(=O)c3ccc(N4CC5CN(CC6CCN(c7ccc8c(c7)C(=O)N(C7CCC(=O)NC7=O)C8=O)CC6)CC5C4)nn3)CC2)cc1Cl (some centres unmarked) [Compound 260, N-((1r,4r)-4-(3-chloro-4-cyanophenoxy)cyclohexyl)-6-(5-((1-(2-(2,6-dioxopiperidin-3-yl)-1,3-dioxoisoindolin-5-yl)piperidine-4-yl)methyl)hexahydropyrrolo[3,4-c]pyrrol-2(1Ji)-yl)pyridazine-3-carboxamide] | > 80 | –
12 | N#Cc1ccc(O[C@H]2CC[C@H](NC(=O)c3ccc(N4CCC(NC5CCN(c6ccc7c(c6)C(=O)N(C6CCC(=O)NC6=O)C7=O)CC5)CC4)nn3)CC2)cc1Cl (some centres unmarked) [Compound 118, N-((1r,4r)-4-(3-chloro-4-cyanophenoxy)cyclohexyl)-6-(4-((1-(2-(2,6-dioxopiperidin-3-yl)-1,3-dioxoisoindolin-5-yl)piperidine-4-yl)amino)piperidin-1-yl)pyridazine-3-amide] | 25 to 49 | –
13 | N#Cc1ccc(O[C@H]2CC[C@H](NC(=O)c3cnc(N4CC5CN(CC6CN(c7cc8c(cc7F)C(=O)N(C7CCC(=O)NC7=O)C8=O)C6)CC5C4)cn3)CC2)cc1Cl (some centres unmarked) [Compound 159] | 50 to 79 | –
14 | N#Cc1ccc(O[C@H]2CC[C@H](NC(=O)c3nnc(N4CC5(CCN(CC6CCN(c7ccc8c(c7)C(=O)N(C7CCC(=O)NC7=O)C8=O)CC6)CC5)C4)s3)CC2)cc1Cl (some centres unmarked) [Compound 105, N-((1r,4r)-4-(3-chloro-4-cyanophenoxy)cyclohexyl)-5-(7-((1-(2-(2,6-dioxopiperidin-3-yl)-1,3-dioxoisoindolin-5-yl)piperidine-4-yl)methyl)-2,7-diazaspiro[3.5]nonan-2-yl)-1,3,4-thiadiazole-2-carboxamide] | 50 to 79 | –
15 | CC1(C)[C@H](Oc2ccc(C#N)c(Cl)c2)C(C)(C)[C@H]1N1Cc2nc(C#CC3CCN(C4CCN(c5ccc6c(c5)C(=O)N(C5CCC(=O)NC5=O)C6=O)CC4)CC3)ccc2C1=O (some centres unmarked) [Compound 315, 2-chloro-4-((1r,3r)-3-(2-((1′-(2-(2,6-dioxopiperidin-3-yl)-1,3-dioxoisoindolin-5-yl)-[1,4′-dipiperidine]4-yl)ethynyl)-5-oxo-5,7-dihydro-6H-pyrrolo[3,4-b]pyridin-6-yl)-2,2,4,4-tetramethylcyclobutoxy)benzonitrile] | < 25 | –
16 | N#Cc1ccc(O[C@H]2CC[C@H](NC(=O)c3ccc(N4CCN([C@@H]5C[C@@H]6CN(c7cc8c(cc7F)C(=O)N(C7CCC(=O)NC7=O)C8=O)C[C@@H]6C5)CC4)nn3)CC2)cc1Cl (stereo partly drawn) [Compound 297, N-((1r,4r)-4-(3-chloro-4-cyanophenoxy)cyclohexyl)-6-(4-((3aR,5R,6aS)-2-(2-(2,6-dioxopiperidin-3-yl)-6-fluoro-1,3-dioxoisoindolin-5-yl)octahydrocyclopenta[c]pyrrol-5-yl)piperazin-1-yl)pyridazine-3-formamide] | 25 to 49 | –
17 | CC1(C)[C@H](NC(=O)c2ccc(N3CCN(C[C@@H]4[C@H]5CN(c6cc7c(cc6F)C(=O)N(C6CCC(=O)NC6=O)C7=O)C[C@@H]45)CC3)nn2)C(C)(C)[C@H]1Oc1ccc(C#N)c(Cl)c1 (some centres unmarked) [Compound 101] | 25 to 49 | –
18 | N#Cc1ccc(O[C@H]2CC[C@H](NC(=O)c3ccc(N4CC5CN(CC6CCN(c7cc8c(cc7F)C(=O)N(C7CCC(=O)NC7=O)C8=O)CC6)CC5C4)nn3)CC2)cc1Cl (some centres unmarked) [Compound 259, N-((1r,4r)-4-(3-chloro-4-cyanophenoxy)cyclohexyl)-6-(5-((1-(2-(2,6-dioxopiperidin-3-yl)-6-fluoro-1,3-dioxoisoindolin-5-yl)piperidine-4-yl)methyl)hexahydropyrrolo[3,4-c]pyrrol-2(11H)-yl)pyridazine-3-carboxamide] | > 80 | –
19 | N#Cc1ccc(O[C@H]2CC[C@H](NC(=O)c3ccc(N4CCC(CN5CCCN(c6ccc7c(c6)C(=O)N(C6CCC(=O)NC6=O)C7=O)CC5)CC4)cc3)CC2)cc1Cl (stereo partly drawn) [Compound 58, N-((1R,4R)-4-(3-chloro-4-cyanophenoxy)cyclohexyl)-4-(4-((4-(2-(2,6-dioxopiperidin-3-yl)-1,3-dioxoisoindolin-5-yl)-1,4-diazepan-1-yl)methyl)piperidin-1-yl)benzamide] | 25 to 49 | –
20 | N#Cc1ccc(O[C@H]2CC[C@H](NC(=O)c3ccc(N4CCN(CC5C[C@@H]6CN(c7cc8c(cc7F)C(=O)N(C7CCC(=O)NC7=O)C8=O)C[C@@H]6C5)CC4)nn3)CC2)cc1Cl (some centres unmarked) [Compound 226] | 50 to 79 | –

Reference: patent US20230091225A1, “Bifunctional chimeric heterocyclic compounds for targeted degradation of androgen receptors and use thereof” (HINOVA PHARMACEUTICALS INC., priority 2019, published 2023)
